# Measurements: publication PMC11403612, “Preparation and Preclinical Characterization of a Simple Ester for Dual Exogenous Supply of Lactate and Beta-hydroxybutyrate” (Journal of Agricultural and Food Chemistry, 2024)
# Columns and labels:
# [1] = Stability of LaKe in plasma, rat; type: in vitro ADME
# Protocol: The in vitro stability of LaKe was evaluated following incubation in simulated gastric fluid (SGF), simulated intestinal fluid (SIF), fresh and frozen plasma (rats and humans, respectively), and the presence of hepatocytes (rats and humans) and liver microsomes (rats and humans). At the chosen time points, the mixtures were analyzed by LC-MS/MS to quantify the remaining LaKe and all assays included at least one control compound with known pharmacokinetic properties. […]
# centrifuged at 4000 rpm, 4℃ for 20 min. 60 μL of supernatant was mixed with 180 μL of purified water for subsequent LC/MS/MS analysis.
# LC-MS/MS Condition: ACQUITY UPLC BEH C18 1.7um 2.1 * 50mm Column (Part No.186002350). Mobile phase: A: 0.1% Formic Acid in Water; B: 0.1% Formic Acid in ACN. […]
# Samples were incubated at 37 ℃, 600 rpm for the appointed time. At the chosen time points (60, 120, 360, 1440 minutes) samples were immediately mixed with 400 μL of cold acetonitrile containing 200 ng/mL tolbutamide and labetalol (internal standards). 200 μL of suspension was removed and mixed completely with 400 μL of cold acetonitrile containing 200 ng/mL tolbutamide and labetalol again. The T0 samples were prepared by transferring 198 μL of SIF solution to corresponding well after adding 400 μL of cold acetonitrile containing 200 ng/mL tolbutamide and then mixing completely. The samples were […]
# Stability of LaKe in plasma […]
# [2] = test system: rats; experiment: Behaviour and tolerability observations in extended pharmacokinetics study; type: in vivo
# Protocol: Animals (SD rats, both male and female, 7–9 weeks) were individually housed from 24 h before dosing until the end of the study. Food was withdrawn the night before initiation of study; following food withdrawal, animals were maintained on glucose water containing 5% w/v glucose and 1% saline to suppress endogenous ketone production throughout the study. Food was returned 8 h post-test article dosing. Animals were monitored for distress or notable changes in behavior during the study. The animals were euthanized by CO2 inhalation 2 h after the last sample collection time point.
smiles,measurement,setting,value
"CC(O)CCOC(=O)C(C)O (stereo not drawn) [LaKe, 3-hydroxybutyl 2-hydroxypropanoate]",detection of LaKe at the first time point,"[1]; fresh plasma from rats, 10 min",could not be detected
same,half-life at 2 µM,[1]; rat plasma (fresh),< 30 min
same,behaviour observations,"[2]; 12 g/kg, at 2 and 8 h following administration, some of the rats, normalized at 10 h",slightly reduced activity and a hunched posture
same,signs of toxicity,"[2]; 10 h following administration, any of the doses",No signs of toxicity or deviation from normal behavior
same,behaviour observations,"[2]; lower doses (1.3 g/kg and 4.1 g/kg), all time points",normal behavior was observed at all time points
same,overall tolerability,"[2]; rats, oral, up to 12 g/kg",well tolerated
